Data: patent publication US6444683B2, “17-azolyl steroids useful as androgen synthesis inhibitors” (University of Maryland at Baltimore, priority 1997, dated 2002)

Tested on: not given
Experiment: not given
Details: not given
`C[C@]12CCC(=O)C=C1CC[C@@H]1[C@@H]2CC[C@]2(C)C(n3ccnn3)=CC[C@@H]12` [Compound 21, 17-(1H-1,2,3-triazol-1-yl)androsta-4,16-diene-3-one] showed a melting point of 118 to 120 °C. With `C[C@]12CC[C@H](O)CC1=CC[C@@H]1[C@@H]2CC[C@]2(C)C(n3ncnn3)=CC[C@@H]12` [Compound 25, 3β-hydroxy-17-(2H-tetrazol-2-yl)androsta-5,16-diene] the melting point was 195 to 198 °C. In the case of `C[C@]12CC[C@H](O)CC1=CC[C@@H]1[C@@H]2CC[C@]2(C)C(n3cnnn3)=CC[C@@H]12` [Compound 27, 3β-hydroxy-17-(1H-tetrazol-1-yl)androsta-5,16-diene], the melting point is reported as 200 to 204 °C (dec.). `C[C@]12CC[C@H](O)CC1=CC[C@@H]1[C@@H]2CC[C@]2(C)C(n3cccn3)=CC[C@@H]12` [Compound 30, 3β-hydroxy-17-(1H-pyrazol-1-yl)androsta-5,16-diene] showed a melting point of 197 to 199 °C.

Target: T1, human prostate 5α-reductase (Homo sapiens, UniProt P31213)
T1 construct: The enzymatic reactions were initiated by addition of human BPH microsomes; from tissue; host or cells: human benign prostatic hyperplasia (BPH) tissue, microsomal fraction
T1 sequence (P31213 1-254): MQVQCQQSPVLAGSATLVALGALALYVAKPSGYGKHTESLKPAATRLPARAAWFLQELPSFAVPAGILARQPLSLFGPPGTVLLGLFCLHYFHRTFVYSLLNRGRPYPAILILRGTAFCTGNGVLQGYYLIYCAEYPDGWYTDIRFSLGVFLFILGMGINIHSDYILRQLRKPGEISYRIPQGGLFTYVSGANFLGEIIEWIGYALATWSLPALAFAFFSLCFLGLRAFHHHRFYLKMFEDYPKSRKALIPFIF
Experiment: Inhibition of human prostate 5α-reductase in BPH microsomes (conversion of [7-3H]-testosterone to DHT)
Type: biochemical
Details: human BPH microsomes; mean ± SDM of at least two experiments; read-out: 5α-Reductase IC50
Protocol: […] The ethanol was evaporated to dryness under a gentle stream of air. […] The enzymatic reactions were initiated by addition of human BPH microsomes (about 180 μg of microsomal protein in 500 μl of phosphate buffer) in a total volume of 1.0 ml, and the incubations were performed for 10 min under oxygen in a shaking water bath at 37° C. The incubations were terminated by placing the sample tubes on ice and the addition of ether. Also, [^14C]-DHT (3000 dpm) and cold DHT (50 μg) were added to each tube as an internal standard and visualization marker, respectively. The steroids were extracted with ether and separated by TLC (chloroform:ether, 80:20) and visualized by exposure to iodine vapor. The extracts were analyzed for ^3H and ^14C using a liquid scintillation counter. The percentage conversion of [7-^3H]-testosterone to [^3H]-dihydrotestosterone was calculated and used to determine 5α-reductase activity.
`C[C@]12CCC(=O)C=C1CC[C@@H]1[C@@H]2CC[C@]2(C)C(n3ccnn3)=CC[C@@H]12` [Compound 21, 17-(1H-1,2,3-triazol-1-yl)androsta-4,16-diene-3-one] gave an IC50 of 198 ± 33 nM.

Same assay, conditions: human prostate enzyme
With `C[C@]12CCC(=O)C=C1CC[C@@H]1[C@@H]2CC[C@]2(C)C(n3ccnn3)=CC[C@@H]12` [Compound 21, 17-(1H-1,2,3-triazol-1-yl)androsta-4,16-diene-3-one] the “Inhibition of 5α-reductase, in words” value was “potent inhibitors”.

Target: T2, Human P45017α (Homo sapiens, UniProt P05093)
T2 construct: Human testicular microsomes were prepared from human testes; from tissue; host or cells: human testes (untreated prostatic cancer patients undergoing orchidectomy), microsomal fraction
T2 sequence (P05093 1-508): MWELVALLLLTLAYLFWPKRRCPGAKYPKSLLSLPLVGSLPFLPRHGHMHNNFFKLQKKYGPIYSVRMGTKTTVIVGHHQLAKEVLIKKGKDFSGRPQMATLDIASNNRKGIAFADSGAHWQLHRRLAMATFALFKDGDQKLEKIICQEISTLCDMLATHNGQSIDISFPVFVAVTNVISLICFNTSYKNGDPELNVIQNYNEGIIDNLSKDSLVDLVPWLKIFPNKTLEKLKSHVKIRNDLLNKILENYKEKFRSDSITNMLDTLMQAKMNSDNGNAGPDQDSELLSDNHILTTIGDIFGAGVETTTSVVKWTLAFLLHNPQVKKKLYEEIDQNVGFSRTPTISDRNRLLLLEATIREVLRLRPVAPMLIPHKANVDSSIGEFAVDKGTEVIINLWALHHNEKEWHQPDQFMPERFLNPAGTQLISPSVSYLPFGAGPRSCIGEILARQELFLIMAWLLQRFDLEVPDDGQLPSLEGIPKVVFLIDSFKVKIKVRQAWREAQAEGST
Experiment: Inhibition of human testicular microsomal P45017α (lyase activity, release of C3H3COOH from [21-3H3]-17α-hydroxypregnenolone)
Type: biochemical
Details: not given
Protocol: (§1) The microsomes were stored at −70° C. until assayed. Just before use, the thawed microsomes were diluted with 0.1 M phosphate buffer (pH 7.4) to appropriate concentrations.
(§2) This assay measures only the lyase activity of the P45017α enzyme.
(§3) IC50 values for inhibitors were calculated from the linear regression line in the plot of logit of lyase activity versus log of inhibitor concentration. […] Each inhibitor was examined at three concentrations.
For `C[C@]12CCC(=O)C=C1CC[C@@H]1[C@@H]2CC[C@]2(C)C(n3ccnn3)=CC[C@@H]12` [Compound 21, 17-(1H-1,2,3-triazol-1-yl)androsta-4,16-diene-3-one], the IC50 was 19 ± 1 nM.

Same assay, conditions: Human P45017α Ki, from Lineweaver-Burk plots and slope replots; Km of 17α-hydroxypregnenolone 560 nM
In the case of `C[C@]12CCC(=O)C=C1CC[C@@H]1[C@@H]2CC[C@]2(C)C(n3ccnn3)=CC[C@@H]12` [Compound 21, 17-(1H-1,2,3-triazol-1-yl)androsta-4,16-diene-3-one], the Ki is reported as 8 nM.

Same assay, conditions: human testicular microsomes
In the case of `C[C@]12CCC(=O)C=C1CC[C@@H]1[C@@H]2CC[C@]2(C)C(n3ccnn3)=CC[C@@H]12` [Compound 21, 17-(1H-1,2,3-triazol-1-yl)androsta-4,16-diene-3-one], the “Inhibition of human P45017α, in words” value is reported as “powerful inhibitors”. In the case of `C[C@]12CC[C@H](O)CC1=CC[C@@H]1[C@@H]2CC[C@]2(C)C(n3ncnn3)=CC[C@@H]12` [Compound 25, 3β-hydroxy-17-(2H-tetrazol-2-yl)androsta-5,16-diene], the “Inhibition of human P45017α, in words” value is reported as “non-inhibitory”. For `C[C@]12CC[C@H](O)CC1=CC[C@@H]1[C@@H]2CC[C@]2(C)C(n3cnnn3)=CC[C@@H]12` [Compound 27, 3β-hydroxy-17-(1H-tetrazol-1-yl)androsta-5,16-diene], the “Inhibition of human P45017α, in words” value was “non-inhibitory”. With `C[C@]12CC[C@H](O)CC1=CC[C@@H]1[C@@H]2CC[C@]2(C)C(n3cccn3)=CC[C@@H]12` [Compound 30, 3β-hydroxy-17-(1H-pyrazol-1-yl)androsta-5,16-diene] the “Inhibition of human P45017α, in words” value was “moderate inhibitor”.

Same assay, conditions: inhibitor 150 nM; substrate 17α-hydroxypregnenolone 10 μM; mean of two determinations
In the case of `C[C@]12CC[C@H](O)CC1=CC[C@@H]1[C@@H]2CC[C@]2(C)C(n3ncnn3)=CC[C@@H]12` [Compound 25, 3β-hydroxy-17-(2H-tetrazol-2-yl)androsta-5,16-diene], the “% Inhibition of human P45017α” value is reported as “N.I.^c”. In the case of `C[C@]12CC[C@H](O)CC1=CC[C@@H]1[C@@H]2CC[C@]2(C)C(n3cnnn3)=CC[C@@H]12` [Compound 27, 3β-hydroxy-17-(1H-tetrazol-1-yl)androsta-5,16-diene], the “% Inhibition of human P45017α” value is reported as “N.I.^c”.

Same assay, conditions: inhibitor 150 nM; substrate 17α-hydroxypregnenolone 10 μM; mean of two determinations; read-out: % Inhibition of human P45017α
In the case of `C[C@]12CC[C@H](O)CC1=CC[C@@H]1[C@@H]2CC[C@]2(C)C(n3cccn3)=CC[C@@H]12` [Compound 30, 3β-hydroxy-17-(1H-pyrazol-1-yl)androsta-5,16-diene], the inhibition at 0.15 µM is reported as 40%.

Target: T3, Rat P45017α (Rattus norvegicus, UniProt P11715)
T3 sequence (P11715 1-507): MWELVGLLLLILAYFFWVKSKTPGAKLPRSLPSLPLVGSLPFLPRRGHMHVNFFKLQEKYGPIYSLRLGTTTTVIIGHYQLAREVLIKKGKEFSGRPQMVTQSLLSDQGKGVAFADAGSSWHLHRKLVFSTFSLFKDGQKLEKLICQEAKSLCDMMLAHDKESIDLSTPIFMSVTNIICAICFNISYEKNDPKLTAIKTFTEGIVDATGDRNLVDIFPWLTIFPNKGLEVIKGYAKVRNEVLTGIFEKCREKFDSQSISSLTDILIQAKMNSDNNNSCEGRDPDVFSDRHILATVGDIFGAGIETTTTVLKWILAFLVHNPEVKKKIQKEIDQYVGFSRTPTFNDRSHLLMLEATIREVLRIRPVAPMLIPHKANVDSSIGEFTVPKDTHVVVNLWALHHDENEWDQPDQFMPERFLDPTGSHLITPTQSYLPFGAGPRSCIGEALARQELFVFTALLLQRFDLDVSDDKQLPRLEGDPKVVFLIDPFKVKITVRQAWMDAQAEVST
Experiment: Inhibition of rat testicular microsomal P45017α (lyase activity)
Type: biochemical
Details: from IC50 values, rat vs human testicular microsomes
Protocol: as §1, §2, §3
In the case of `C[C@]12CCC(=O)C=C1CC[C@@H]1[C@@H]2CC[C@]2(C)C(n3ccnn3)=CC[C@@H]12` [Compound 21, 17-(1H-1,2,3-triazol-1-yl)androsta-4,16-diene-3-one], the “Increase of potency towards the rat enzyme compared with human P45017α” value is reported as 2 fold.

Same assay, conditions: rat testicular microsomes
In the case of `C[C@]12CCC(=O)C=C1CC[C@@H]1[C@@H]2CC[C@]2(C)C(n3ccnn3)=CC[C@@H]12` [Compound 21, 17-(1H-1,2,3-triazol-1-yl)androsta-4,16-diene-3-one], the “Inhibition of rat testicular P45017α, in words” value is reported as “powerful inhibitors”.

Same assay, conditions: rat testicular microsomes; mean ± SDM of at least two experiments; read-out: Rat P45017α IC50
For `C[C@]12CCC(=O)C=C1CC[C@@H]1[C@@H]2CC[C@]2(C)C(n3ccnn3)=CC[C@@H]12` [Compound 21, 17-(1H-1,2,3-triazol-1-yl)androsta-4,16-diene-3-one], the IC50 was 9 ± 2 nM.
